Assay results from patent US20240018163A1, “NEW THIAZOLOPYRIMIDINONE DERIVATIVES” (Hoffmann-La Roche Inc., priority 2021, published 2024).

The compounds below were run on mutant HTT protein (mHTT) (assay: Homogeneous Time Resolved Fluorescence (HTRF) assay for HTT lowering). Details: reduction of mHTT in Huntington patient human cells (GENEAe020-A cell line), 48 hours incubation, mean from three replicates.
Type: cell-based
Procedure: Homogeneous Time Resolved Fluorescence for HTT lowering
The HTRF assay was adapted from Weiss et al. (Analytical Biochemistry Volume 395, Issue 1, 1 Dec. 2009, Pages 8-15 and Analytical Biochemistry Volume 410, 2011, Pages 304-306) to cells from GENEAe020-A cell line (https://hpscreg.eu/cell-line/GENEAe020-A).
Compounds were tested for the effect of mutant HTT levels in Huntington patient human cells (GENEAe020-A cell line) using Homogeneous Time Resolved Fluorescence (HTRF) directed towards mutant HTT protein (mHTT). The GENEAe020-A cell line was derived by Genea Biocells from human blastocysts of HD donors. After assessing viability, cells were plated into 384 well collagen coated plates in growth media. Once cells adhered, media was removed and test compounds dissolved in DMSO were diluted with buffer solution and added to the adherent cells. Controls included experiments with no cells, DMSO with no compound, and Hsp90 inhibitor control. Cells were incubated with compounds and controls for 48 hours. Then, the cells were lysed and transferred to an assay plate containing HTRF labeled monoclonal antibodies developed by Paul Patterson (Ko et al., Brain Research Bulletin, Volume 56, Numbers 3 and 4, 2001, Pages 319-329) which recognize specific areas of the HTT protein. The terbium labeled “donor” antibody (2B7) binds to the N-terminus of the HTT protein and the Alexa488 labeled “acceptor” antibody (MW1) is specific for the polyglutamine region of the protein. Binding of the acceptor labeled antibody is more efficient for the extended polyglutamine repeats of mutant HTT protein which translates into a signal boost which enables the specific measurement of mutant HTT protein level. The HTRF donor and acceptor detection reagents were incubated with the cell lysate and the ratio between the signals of the two fluorophores is indicative of the relative quantities of mHTT.

| SMILES | EC50 [nM] |
| --- | --- |
| Cc1cn2nc(-c3cc(=O)n4cc([C@H]5[C@@H]6CNC[C@@H]65)sc4n3)cc(C)c2n1 [Example 55, 7-(2,8-dimethylimidazo[1,2-b]pyridazin-6-yl)-2-[rac-(1S,5R)-3-azabicyclo[3.1.0]hexan-6-yl]thiazolo[3,2-a]pyrimidin-5-one] | 65 |
| COc1cc(-c2cc(=O)n3cc([C@]4(F)CCNC[C@H]4F)sc3n2)nn2cc(C)nc12 [Example 56, 7-(8-methoxy-2-methyl-imidazo[1,2-b]pyridazin-6-yl)-2-[(3R,4S)-3,4-difluoro-4-piperidyl]thiazolo[3,2-a]pyrimidin-5-one] | 50 |
| COc1cc(-c2cc(=O)n3cc([C@]4(F)CCNC[C@@H]4F)sc3n2)nn2cc(C)nc12 [Example 57, 7-(8-methoxy-2-methyl-imidazo[1,2-b]pyridazin-6-yl)-2-[(3S,4S)-3,4-difluoro-4-piperidyl]thiazolo[3,2-a]pyrimidin-5-one] | 239 |
| COc1cc(-c2cc(=O)n3cc([C@@]4(F)CCNC[C@H]4F)sc3n2)nn2cc(C)nc12 [Example 58, 7-(8-methoxy-2-methyl-imidazo[1,2-b]pyridazin-6-yl)-2-[(3R,4R)-3,4-difluoro-4-piperidyl]thiazolo[3,2-a]pyrimidin-5-one] | 99 |
| COc1cc(-c2cc(=O)n3cc([C@@]4(F)CCNC[C@@H]4F)sc3n2)nn2cc(C)nc12 [Example 59, 7-(8-methoxy-2-methyl-imidazo[1,2-b]pyridazin-6-yl)-2-[(3S,4R)-3,4-difluoro-4-piperidyl]thiazolo[3,2-a]pyrimidin-5-one] | 428 |
